From patent US12662489B2 (Sitryx Therapeutics Limited, priority 2023, dated 2026) come the findings set out here.

For test [1], the target named is T1, MTHFD1 recombinant human enzyme (Homo sapiens, UniProt P11586).
T1 sequence (P11586 2-291 limits assumed): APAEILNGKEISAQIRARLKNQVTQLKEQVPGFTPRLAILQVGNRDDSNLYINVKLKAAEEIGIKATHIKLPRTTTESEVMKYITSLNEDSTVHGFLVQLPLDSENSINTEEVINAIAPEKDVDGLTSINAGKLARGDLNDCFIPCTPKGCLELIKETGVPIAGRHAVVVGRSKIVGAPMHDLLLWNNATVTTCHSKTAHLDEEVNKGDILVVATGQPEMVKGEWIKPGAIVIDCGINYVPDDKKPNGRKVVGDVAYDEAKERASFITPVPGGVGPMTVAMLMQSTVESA
Nature of the test: MTHFD1 inhibition assay (NAD(P)H-Glo luminescence). To be noted: MTHFD1 IC50, recombinant human enzyme 200 nM, NADP, band.

Test [2] deals with T2, MTHFD2 recombinant human enzyme (Homo sapiens, UniProt P13995).
T2 sequence (P13995 36-350): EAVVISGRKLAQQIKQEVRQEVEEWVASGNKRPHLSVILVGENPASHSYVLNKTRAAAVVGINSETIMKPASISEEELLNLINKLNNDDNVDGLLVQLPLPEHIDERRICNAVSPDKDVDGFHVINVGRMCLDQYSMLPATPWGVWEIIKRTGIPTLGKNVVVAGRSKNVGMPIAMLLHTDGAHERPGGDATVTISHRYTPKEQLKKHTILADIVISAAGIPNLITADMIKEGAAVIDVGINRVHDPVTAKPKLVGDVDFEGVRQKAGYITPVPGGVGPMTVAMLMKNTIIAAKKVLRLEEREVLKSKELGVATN
Nature of the test: MTHFD2 inhibition assay (NAD(P)H-Glo luminescence). The following applies: for MTHFD1/MTHFD2 IC50 ratio: selectivity of MTHFD2 inhibition over MTHFD1, band.

Regarding `CCOc1c(C(=O)NS(=O)(=O)N2CCCC2)ccc(C(=O)N2CCc3c(c(=O)oc4c(C)c(N5CCN(C)[C@@H](COC)C5)cc(Cl)c34)C2)c1F` [Example 258, (R)-4-(10-chloro-8-(3-(methoxymethyl)-4-methylpiperazin-1-yl)-7-methyl-5-oxo-1,3,4,5-tetrahydro-2H-chromeno[3,4-c]pyridine-3-carbonyl)-2-ethoxy-3-fluoro-N-(pyrrolidin-1-ylsulfonyl)benzamide], the IC50 in test [1] was in the range of 10 to 100 nM. Further, in test [2], the half-inhibitory concentration (IC50) was in the range of 1 to 10 nM and the “MTHFD1/MTHFD2 IC50 ratio” value is on record as “H (>9.0 to 30)”.
`CCOc1cc(C(=O)N2CCc3c(c(=O)oc4c(C)c(N5CCN(C)[C@@H](COC)C5)cc(C)c34)C2)c(F)cc1C(=O)NS(=O)(=O)N1CC[C@@H](F)C1` [Example 261, 2-ethoxy-5-fluoro-N-(((R)-3-fluoropyrrolidin-1-yl)sulfonyl)-4-(8-((R)-3-(methoxymethyl)-4-methylpiperazin-1-yl)-7,10-dimethyl-5-oxo-1,3,4,5-tetrahydro-2H-chromeno[3,4-c]pyridine-3-carbonyl)benzamide]: the IC50 in test [1] fell in the range of 100 to 1000 nM; in test [2] it was 1 to 10 nM.
As for `CCOc1cc(C(=O)N2CCc3c(c(=O)oc4c(C)c(N5CCN(C)[C@@H](COC)C5)cc(C)c34)C2)c(F)cc1C(=O)NS(=O)(=O)N(C)C1CC1` [Example 269, (R)-N-(N-cyclopropyl-N-methylsulfamoyl)-2-ethoxy-5-fluoro-4-(8-(3-(methoxymethyl)-4-methylpiperazin-1-yl)-7,10-dimethyl-5-oxo-1,3,4,5-tetrahydro-2H-chromeno[3,4-c]pyridine-3-carbonyl)benzamide], the IC50 in test [1] is 10 to 100 nM. For the same compound, in test [2], the IC50 was in the range of 1 to 10 nM and the “MTHFD1/MTHFD2 IC50 ratio” value is listed as “J (>30)”.
With `COC[C@H]1CN(c2cc(Cl)c3c4c(c(=O)oc3c2C)CN(C(=O)c2cc(N(C)C)c(C(=O)NS(=O)(=O)N3CCCCC35COC5)cc2F)CC4)CCN1C` [Example 271, (R)-N-((2-oxa-5-azaspiro[3.5]nonan-5-yl)sulfonyl)-4-(10-chloro-8-(3-(methoxymethyl)-4-methylpiperazin-1-yl)-7-methyl-5-oxo-1,3,4,5-tetrahydro-2H-chromeno[3,4-c]pyridine-3-carbonyl)-2-(dimethylamino)-5-fluorobenzamide], the IC50 lay in the range of 1000 to 5000 nM in test [1] and 10 to 100 nM in test [2]. Further, the “MTHFD1/MTHFD2 IC50 ratio” value in test [2] was “H (>9.0 to 30)”.
On the same counts, the results for `COC[C@H]1CN(c2cc(Cl)c3c4c(c(=O)oc3c2C)CN(C(=O)c2cc(N(C)C)c(C(=O)NS(=O)(=O)N3CCCC5(COC5)C3)cc2F)CC4)CCN1C` [Example 272, (R)-N-((2-oxa-6-azaspiro[3.5]nonan-6-yl)sulfonyl)-4-(10-chloro-8-(3-(methoxymethyl)-4-methylpiperazin-1-yl)-7-methyl-5-oxo-1,3,4,5-tetrahydro-2H-chromeno[3,4-c]pyridine-3-carbonyl)-2-(dimethylamino)-5-fluorobenzamide] are 100 to 1000 nM, 10 to 100 nM and “H (>9.0 to 30)”.
Turning to `COC[C@H]1CN(c2cc(Cl)c3c4c(c(=O)oc3c2C)CN(C(=O)c2cc(N(C)C)c(C(=O)NS(=O)(=O)N3CCC5(COC5)C3)cc2F)CC4)CCN1C` [Example 273, (R)-N-((2-oxa-6-azaspiro[3.4]octan-6-yl)sulfonyl)-4-(10-chloro-8-(3-(methoxymethyl)-4-methylpiperazin-1-yl)-7-methyl-5-oxo-1,3,4,5-tetrahydro-2H-chromeno[3,4-c]pyridine-3-carbonyl)-2-(dimethylamino)-5-fluorobenzamide], the values for the IC50 in test [1] and in test [2] were 100 to 1000 nM and 10 to 100 nM, respectively. Further, the “MTHFD1/MTHFD2 IC50 ratio” value in test [2] is given as “H (>9.0 to 30)”.

For orientation: IC50 means the concentration that inhibits the measured activity by half.
